In US20150297623A1, “METHODS FOR TREATMENT OF PRIMARY CANCER AND CANCER METASTASIS” (THE BOARD OF REGENTS OF THE UNIVERSITY OF TEXAS SYSTEM, priority 2012, published 2015):

Tests used:
[1] = system: MDA-MB-231 cells; test: Transwell cell migration assay, MDA-MB-231; assay type: cell-based, human; settings: for effect on migration of MDA-MB-231 cells: 200 μM
Description: (§1) MLO-Y4 cells were seeded onto 150 mm dishes (Corning) and incubated for 24 hr to allow attachment, after which media was removed and changed with α-modified essential medium (α-MEM) without phenol red (Gibco) supplemented with 2.5% FBS and 2.5% BCS (Hyclone). MLO-Y4 cells were incubated in the absence or present of 20 μM AD in a 5% CO2 incubator at 37° C. for 48 hr and the CM was collected.
(§2) Migration assays were performed in transwell membrane filter inserts in 24-well tissue culture plates (BD Biosciences San Jose, Calif., USA). The transwell membrane filter inserts contained 6.5-mm diameter, 8-μm pore size, […] thick polycarbonate membranes. The breast cancer cell lines were harvested and resuspended in CM from MLO-Y4 cells with or without other compounds. Five-hundred microliter breast cancer cell suspensions were added to the upper side of the inserts at a density of 10×10^4 cells/insert and 750 μl CM with or without other compounds was added to the lower wells. Cells were incubated at 37° C. for 18-20 hr. […] The number of migrated cells in 5 fields of view per insert was counted under a light microscope at magnification 10×.

[2] = system: MDA-MB-231 cells; test: WST-1 cell proliferation assay; assay type: cell-based, human; settings: for effect on cell proliferation: concentrations as used in migration assay / various concentrations
Description: Cell viability was assessed using WST-1 (Water Soluble Tetrazolium salts) assay (Roche). A single cell suspension was plated in 96-well plates at 2.0×10^4 cells/well and allowed to attach to the plates at 37° C. for 2 hr. […] After the treatment, cell viability was measured by adding 10 μl of Cell Proliferation Reagent WST-1 to each well and incubated for 1 hr at 37° C. in a 5% CO2 incubator. The cell proliferation was measured at an […] wavelength of 450 nm with a Synergy HT Multi-Mode Microplate Reader (Biotek).

[3] = system: MDA-MB-231 cells; test: Soft agar colony formation assay (anchorage-independent growth); assay type: cell-based, human; settings: about 2 weeks (control 82±4.5)
Description: For anchorage-independent cell growth, MDA-MB-231 cells were plated in 0.4% agarose with complete medium supplemented with either 100 μM ATPγS or 200 μM adenosine on top of a 0.8% agarose base supplemented with complete medium. Cells were maintained for about 2 weeks before staining with p-iodonitrotetrazolium violet (Sigma-Aldrich, St. Louis, Mo.). Images were captured by using a scanner and the numbers of colonies were counted.

[4] = system: Py8119 mouse mammary carcinoma cells; test: Transwell cell migration assay, Py8119; assay type: cell-based
Description: as §1, §2

[5] = system: MDA-MB-231 cells; test: Orthotopic MDA-MB-231 xenograft in mammary fat pads of nude mice; assay type: in vivo, mouse; settings: for tumor growth rate in comparison to the control group: 400 μmol per mouse IP three times a week
Description: To test if ATP has a similar, inhibitory effect on tumor growth in vivo, the inventors used an orthotopic mouse model. MDA-MB-231 cells were orthotopically implanted into the mammary fat pads of athymic female nude mice. After the mice were randomly assigned into 3 different treatment groups, the mice were treated with or without ATPγS or adenosine. The ATPγS and adenosine were administered through IP injections at 400 μmol per mouse three times a week. The control mice were injected IP with saline. Dosages were determined by a previous study showing no toxicity from IP injections of up to 50 mM of adenine nucleotides into mice for 10 days. Tumor sizes were measured once every three to four days throughout the treatment period. At the end of the study, the tumors were excised and weighed. […] The reduced mean tumor volume of the treatment group was statistically significant after 17 days of ATPγS treatment. […] Additionally, the adenosine-treated group had 50% increased tumor sizes compared to the control group tumors (FIG. 7B).
MDA-MB-231 cells were injected subcutaneously in the mammary fat pad of 4-week-old female nu/nu athymic nude mice. Each mouse received bilateral subcutaneous inoculation in both the left and right inguinal mammary fat pad areas with 100 μl of cell suspension containing ˜1×10^7 cells/ml in serum-free media. Animals were randomly assigned to 3 different groups, and solid tumors were allowed to form up to about 5 mm^3 volume before treatments began. ATPγS, at 400 μmol/500 μl saline, adenosine, at 400 μmol/500 μl saline, or 500 μl of saline, were administered intraperitoneally (IP) three times a week for 3 weeks. The growth of xenograft tumors was monitored twice a week and tumor size was measured with a caliper in two dimensions. Tumor volumes were calculated with the equation V=(L×W^2)×0.5 (mm^3), where L is length and W is width of a tumor.

[6] = system: Py8119 mammary carcinoma cells; test: Intratibial injection of Py8119/Luc-GFP cells, bioluminescence imaging; assay type: in vivo, mouse
Description: To assess how systemic treatment with ATPγS may affect the growth of breast cancer cells in the bone microenvironment of a syngeneic host, the inventors performed intratibial injections in wild-type C57b1/6 female mice using the mouse mammary carcinoma cell line Py8119. The mammary tumor cells were injected into the right tibias of the female mice, and the tumor growth was monitored with whole animal imaging once a week for 4 weeks. The mice were treated with IP injection of saline supplemented with or without 400 μmol ATPγS three times a week. […] Quantification data (lower panels) further confirmed the significant decrease of tumor growth in bone with the treatment of ATPγS. Mice were anesthetized by isoflurane and were also given buprenorpine-HCl (0.3 mg/ml) as an analgesic. Py8119 cells expressing Luc-GFP (1×10^5 in 20 μl of PBS) were inoculated into the bone marrow area of right tibias through the pre-made hole by a Hamilton syringe fitted with a 30-gauge needle. […] Intratibial tumor growth was monitored with bioluminescence imaging with a Xenogen IVIS-Spectrum imaging system (Xenogen, Alameda, Calif., USA) every week starting from 3 days after tumor cell inoculation. […] Analysis was performed using LivingImage software (Xenogen) by measurement of photon flux (measured in photons/sec/cm^2/steradian) with a region of interest (ROI) drawn around the bioluminescence signal to be measured. […]

With `Nc1ncnc2c1ncn2[C@@H](C=O)O[C@@H](C=O)COP(=O)(O)OP(=O)(O)OP(=O)(O)O` [oATP] the “effect on the inhibitory effect of CM-AD on MDA-MB-231 cell migration” value ([1]; 300 μM oATP) was “significantly attenuated”.

In the case of “2′(3′)-O-(4-Benzoylbenzoyl)adenosine-5′-triphosphate tri(triethylammonium) salt [BzATP]”, the “number of migrating MDA-MB-231 cells” value ([1]; compound 10 μM) is reported as 99±7.8 cells, the “number of migrating MDA-MB-231 cells” value ([1]; compound 100 μM) is reported as 64±4.4 cells and the “number of migrating MDA-MB-231 cells” value ([1]; compound 200 μM) is reported as 39±2.6 cells. The “effect on cell proliferation (WST-1)” value ([2]; 400 μM) was “significant reduction” and the “effect on cell proliferation (WST-1)” value ([2]; concentrations 1-200 μM) was “minimal effects”.

For `CCOc1nc2c(N)ncnc2n1CC` [ANR94, 8-Ethoxy-9-ethyl-9H-purin-6-amine], the “effect on ATP-increased migration of MDA-MB-231 cells” value ([1]; 100 μM ANR94, 200 μM ATP, 20 hr) was “attenuated” and the “effect on adenosine-increased migration of MDA-MB-231 cells” value ([1]; 100 μM ANR94, 200 μM adenosine, 20 hr) was “attenuated”.

In the case of `Nc1ncnc2c1ncn2[C@@H]1O[C@H](COP(=O)([O-])OP(=O)([O-])OP([O-])([O-])=S)[C@@H](O)[C@H]1O.[Li+].[Li+].[Li+].[Li+]` [ATPγS, adenosine 5′-[γ-thio]triphosphate tetralithium salt], the “number of migrated MDA-MB-231 cells” value ([1]; 100 μM ATPγS in control CM (control 112±2.4)) is reported as 63±9.6 cells, the “number of migrating MDA-MB-231 cells” value ([1]; compound 50 μM) is reported as 46±9.3 cells and the “number of migrating MDA-MB-231 cells” value ([1]; compound 100 μM) is reported as 33±3.3 cells. For the same compound, the “number of migrating MDA-MB-231 cells” value ([1]; compound 200 μM) was 11±1.7 cells, the “number of migrating MDA-MB-231 cells” value ([1]; compound 400 μM) was 9±1.5 cells and the “colony formation of MDA-MB-231 cells in soft agar” value ([3]; 100 μM ATPγS) was 47±6.2 colonies. The “effect on migration of Py8119 cells” value ([4]; 100 μM ATPγS in CM / CM-AD) was “decreased”, the “decrease of size of excised tumors vs control group” value ([5]; 400 μmol ATPγS IP three times a week, post mortem) was “over 4 fold” and the “tumor growth rate in comparison to the control group” value [5] was “significantly reduced”. For the same compound, the “tumor growth in the tibias (bioluminescence)” value ([6]; 400 μmol ATPγS IP three times a week) was “significantly inhibited” and the “tumor burden (bioluminescence signals, dorsal and ventral)” value ([6]; 400 μmol ATPγS IP, after 4 weeks of treatment) was “dramatic reduction”.

With apyrase the “increase of MDA-MB-231 cell migration” value ([1]; apyrase 5 units/ml in CM-AD) was 7.7 fold and the “increase of MDA-MB-231 cell migration” value ([1]; apyrase 5 units/ml in untreated CM) was 2.5 fold.

`Nc1ncnc2c1ncn2[C@@H]1O[C@H](COP(=O)(O)OP(=O)(O)OP(=O)(O)O)[C@@H](O)[C@H]1O` [ATP, adenosine-5′-triphosphate] was tested, and the “number of migrated MDA-MB-231 cells” value ([1]; 200 μM ATP added to CM from non-AD-treated MLO-Y4 cells (control 127±2)) was 188±33.5, the “number of migrated MDA-MB-231 cells” value ([1]; 200 μM ATP added to CM-AD (control 88±10.7)) was 153±21.1 and the “effect on migration of MDA-MB-231 cells” value ([1]; 20 hr) was “increased migration”. The “number of migrating MDA-MB-231 cells” value ([1]; compound 50 μM) was 100±17.7 cells, the “number of migrating MDA-MB-231 cells” value ([1]; compound 200 μM) was 257±26 cells and the “number of migrating MDA-MB-231 cells” value ([1]; compound 400 μM) was 240±0.9 cells. For the same compound, the “effect on cell proliferation” value [2] was “not caused by alterations of cell proliferation”, the “number of migrated Py8119 cells” value ([4]; 400 μM ATP in CM (control 254±25.9)) was 159±7.8 cells and the “number of migrated Py8119 cells” value ([4]; 400 μM ATP in CM-AD (control 127±0.3)) was 88±10.3 cells.

In the case of `CCN(CC)c1ncnc2c1ncn2[C@@H]1O[C@H](COP(=O)(O)OP(=O)(O)C(Br)(Br)P(=O)(O)O)[C@@H](O)[C@H]1O` [ARL67156], the “effect on the stimulatory effect of higher dosage of ATP on migration” value ([1]; 200 μM ARL67156, 200 μM ATP) is reported as “attenuated” and the “effect on cell proliferation” value [2] is reported as “not caused by changes in cell proliferation”.

In the case of `Nc1ncnc2c1ncn2[C@@H]1O[C@H](CO)[C@@H](O)[C@H]1O` [adenosine], the “effect on MDA-MB-231 cell migration” value ([1]; 200 μM adenosine in CM from MLO-Y4 cells) is reported as “increased”, the “effect on migration of MDA-MB-231 cells” value ([1]; 20 hr) is reported as “increases” and the “effect on cell proliferation” value [2] is reported as “minimal effects”. The “colony formation of MDA-MB-231 cells in soft agar” value ([3]; 200 μM adenosine) was 132±13.7 colonies, the “increase of tumor sizes compared to control group” value ([5]; 400 μmol adenosine IP three times a week, post mortem) was 50% and the “tumor growth rate in comparison to the control group” value [5] was “increase”.

`CCCn1c(=O)c2[nH]c(-c3ccc(OCC(=O)Nc4ccc(C#N)cc4)cc3)nc2n(CCC)c1=O` [MRS1754, N-(4-Cyanophenyl)-2-[4-(2,3,6,7-tetrahydro-2,6-dioxo-1,3-dipropyl-1H-purin-8-yl)phenoxy]-acetamide] was tested, and the “effect on the inhibitory effect of CM-AD on cell migration” value ([1]; 500 nM MRS1754) was “further augmented the inhibitory effect”, the “effect on the stimulatory effect of ATP on migration” value ([1]; 500 nM MRS1754, 200 μM ATP, in CM / CM-AD) was “attenuated” and the “effect on adenosine-induced increase of MDA-MB-231 cell migration” value ([1]; 500 nM MRS1754, 200 μM adenosine, in CM) was “completely attenuated”. For the same compound, the “effect on the increase of migration caused by apyrase treatment” value ([1]; 500 nM MRS1754, apyrase 5 units/ml, in CM) was “significantly attenuated” and the “effect on adenosine-enhanced migration of Py8119 cells” value [4] was “inhibited”.
